According to the supplement of paper PMC10307832:

Legend:
Test in all cases: relative viability (nuclei count vs DMSO), 5 days (fraction); higher = more cells survive
Wnt-C59 + Navitoclax = compound: CC1=NC=CC(=C1)C2=CC=C(C=C2)CC(=O)NC3=CC=C(C=C3)C4=CN=CC=C4 [Wnt-C59] + CC1(C)CCC(c2ccc(Cl)cc2)=C(CN2CCN(c3ccc(C(=O)NS(=O)(=O)c4ccc(N[C@H](CCN5CCOCC5)CSc5ccccc5)c(S(=O)(=O)C(F)(F)F)c4)cc3)CC2)C1 [Navitoclax] (partner 0.5 µM)
How it was run: (§1)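 Lung cancer cell lines were seeded in 1536-well plates and dosed by pin tool the next day, with either a single drug or a fixed anchor-drug dose combined with five library-drug doses (not always all listed) spaced in √10 steps. Five days later, one step fixed the cells and stained their nuclei (final 0.05% Triton X-100, 1% formaldehyde, 1 ug/ml Hoechst), and nuclei were counted on 4× images. Relative viability is the nuclei count in treated wells divided by the count in vehicle wells, and each value is the median of duplicate plates.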

Wnt-C59 + Tozasertib = compound: CC1=NC=CC(=C1)C2=CC=C(C=C2)CC(=O)NC3=CC=C(C=C3)C4=CN=CC=C4 [Wnt-C59] + Cc1cc(Nc2cc(N3CCN(C)CC3)nc(Sc3ccc(NC(=O)C4CC4)cc3)n2)n[nH]1 [Tozasertib] (partner 0.1 µM)
How it was run: as §1

Wnt-C59 + Phenformin = compound: CC1=NC=CC(=C1)C2=CC=C(C=C2)CC(=O)NC3=CC=C(C=C3)C4=CN=CC=C4 [Wnt-C59] + N=C(N)NC(=N)NCCc1ccccc1 [Phenformin] (partner 250 µM)
How it was run: as §1

Lapatinib + Bortezomib = compound: CS(=O)(=O)CCNCc1ccc(-c2ccc3ncnc(Nc4ccc(OCc5cccc(F)c5)c(Cl)c4)c3c2)o1 [Lapatinib] + CC(C)C[C@H](NC(=O)[C@H](Cc1ccccc1)NC(=O)c1cnccn1)B(O)O [Bortezomib] (partner 0.002 µM)
How it was run: as §1

NCI-H838 gave a relative viability (Wnt-C59 + Navitoclax; first compound 0.001 µM) of 1.24, a relative viability (Wnt-C59 + Navitoclax; first compound 0.01 µM) of 1.18 and a relative viability (Wnt-C59 + Navitoclax; first compound 0.03162 µM) of 1.18. The relative viability (Wnt-C59 + Navitoclax; first compound 0.1 µM) was 1.16, the relative viability (Wnt-C59 + Tozasertib; first compound 0.001 µM) was 0.332 and the relative viability (Wnt-C59 + Tozasertib; first compound 0.01 µM) was 0.247. It also gave a relative viability (Wnt-C59 + Tozasertib; first compound 0.03162 µM) of 0.293, a relative viability (Wnt-C59 + Tozasertib; first compound 0.1 µM) of 0.263 and a relative viability (Wnt-C59 + Phenformin; first compound 0.001 µM) of 0.573. It also gave a relative viability (Wnt-C59 + Phenformin; first compound 0.01 µM) of 0.582, a relative viability (Wnt-C59 + Phenformin; first compound 0.03162 µM) of 0.588 and a relative viability (Wnt-C59 + Phenformin; first compound 0.1 µM) of 0.624. For the same cell line, the relative viability (Lapatinib + Bortezomib; first compound 0.02 µM) was 1.08, the relative viability (Lapatinib + Bortezomib; first compound 0.06325 µM) was 0.461 and the relative viability (Lapatinib + Bortezomib; first compound 0.2 µM) was 0.843. It also gave a relative viability (Lapatinib + Bortezomib; first compound 0.6325 µM) of 0.829 and a relative viability (Lapatinib + Bortezomib; first compound 2 µM) of 0.674.
In the case of NCI-H1355, the relative viability (Wnt-C59 + Navitoclax; first compound 0.001 µM) is reported as 1.01, the relative viability (Wnt-C59 + Navitoclax; first compound 0.01 µM) is reported as 0.876 and the relative viability (Wnt-C59 + Navitoclax; first compound 0.03162 µM) is reported as 0.905. It also gave a relative viability (Wnt-C59 + Navitoclax; first compound 0.1 µM) of 0.88, a relative viability (Wnt-C59 + Tozasertib; first compound 0.001 µM) of 0.599 and a relative viability (Wnt-C59 + Tozasertib; first compound 0.01 µM) of 0.581. The relative viability (Wnt-C59 + Tozasertib; first compound 0.03162 µM) was 0.564, the relative viability (Wnt-C59 + Tozasertib; first compound 0.1 µM) was 0.558 and the relative viability (Wnt-C59 + Phenformin; first compound 0.001 µM) was 0.446. The relative viability (Wnt-C59 + Phenformin; first compound 0.01 µM) was 0.42, the relative viability (Wnt-C59 + Phenformin; first compound 0.03162 µM) was 0.456 and the relative viability (Wnt-C59 + Phenformin; first compound 0.1 µM) was 0.475. The relative viability (Lapatinib + Bortezomib; first compound 0.06325 µM) was 0.954, the relative viability (Lapatinib + Bortezomib; first compound 0.2 µM) was 1.13 and the relative viability (Lapatinib + Bortezomib; first compound 0.6325 µM) was 1.2. For the same cell line, the relative viability (Lapatinib + Bortezomib; first compound 2 µM) was 0.573.
Work on NCI-H1437 yielded a relative viability (Wnt-C59 + Navitoclax; first compound 0.001 µM) of 1.16, a relative viability (Wnt-C59 + Navitoclax; first compound 0.01 µM) of 1.03 and a relative viability (Wnt-C59 + Navitoclax; first compound 0.03162 µM) of 1.16. It also gave a relative viability (Wnt-C59 + Navitoclax; first compound 0.1 µM) of 1.09, a relative viability (Wnt-C59 + Tozasertib; first compound 0.001 µM) of 0.426 and a relative viability (Wnt-C59 + Tozasertib; first compound 0.01 µM) of 0.428. It also gave a relative viability (Wnt-C59 + Tozasertib; first compound 0.03162 µM) of 0.417, a relative viability (Wnt-C59 + Tozasertib; first compound 0.1 µM) of 0.384 and a relative viability (Wnt-C59 + Phenformin; first compound 0.001 µM) of 0.297. It also gave a relative viability (Wnt-C59 + Phenformin; first compound 0.01 µM) of 0.296, a relative viability (Wnt-C59 + Phenformin; first compound 0.03162 µM) of 0.297 and a relative viability (Wnt-C59 + Phenformin; first compound 0.1 µM) of 0.26. The relative viability (Lapatinib + Bortezomib; first compound 0.02 µM) was 0.523, the relative viability (Lapatinib + Bortezomib; first compound 0.06325 µM) was 0.46 and the relative viability (Lapatinib + Bortezomib; first compound 0.2 µM) was 0.421. It also gave a relative viability (Lapatinib + Bortezomib; first compound 0.6325 µM) of 0.394 and a relative viability (Lapatinib + Bortezomib; first compound 2 µM) of 0.39.
Cell Line NCI-H1650 has a relative viability (Wnt-C59 + Navitoclax; first compound 0.001 µM) of 1.35, a relative viability (Wnt-C59 + Navitoclax; first compound 0.01 µM) of 1.41 and a relative viability (Wnt-C59 + Navitoclax; first compound 0.03162 µM) of 1.27. The relative viability (Wnt-C59 + Navitoclax; first compound 0.1 µM) was 1.1, the relative viability (Wnt-C59 + Tozasertib; first compound 0.001 µM) was 0.423 and the relative viability (Wnt-C59 + Tozasertib; first compound 0.01 µM) was 0.477. The relative viability (Wnt-C59 + Tozasertib; first compound 0.03162 µM) was 0.499, the relative viability (Wnt-C59 + Tozasertib; first compound 0.1 µM) was 0.423 and the relative viability (Wnt-C59 + Phenformin; first compound 0.001 µM) was 0.449. For the same cell line, the relative viability (Wnt-C59 + Phenformin; first compound 0.01 µM) was 0.483, the relative viability (Wnt-C59 + Phenformin; first compound 0.03162 µM) was 0.454 and the relative viability (Wnt-C59 + Phenformin; first compound 0.1 µM) was 0.391. It also gave a relative viability (Lapatinib + Bortezomib; first compound 0.02 µM) of 0.203, a relative viability (Lapatinib + Bortezomib; first compound 0.06325 µM) of 0.206 and a relative viability (Lapatinib + Bortezomib; first compound 0.2 µM) of 0.223. For the same cell line, the relative viability (Lapatinib + Bortezomib; first compound 0.6325 µM) was 0.192 and the relative viability (Lapatinib + Bortezomib; first compound 2 µM) was 0.243.
Work on NCI-H1651 yielded a relative viability (Wnt-C59 + Navitoclax; first compound 0.001 µM) of 1.07, a relative viability (Wnt-C59 + Navitoclax; first compound 0.01 µM) of 1.02 and a relative viability (Wnt-C59 + Navitoclax; first compound 0.03162 µM) of 1.11. It also gave a relative viability (Wnt-C59 + Navitoclax; first compound 0.1 µM) of 0.955, a relative viability (Wnt-C59 + Tozasertib; first compound 0.001 µM) of 0.918 and a relative viability (Wnt-C59 + Tozasertib; first compound 0.01 µM) of 0.537. For the same cell line, the relative viability (Wnt-C59 + Tozasertib; first compound 0.03162 µM) was 0.761, the relative viability (Wnt-C59 + Tozasertib; first compound 0.1 µM) was 0.744 and the relative viability (Wnt-C59 + Phenformin; first compound 0.001 µM) was 0.344. It also gave a relative viability (Wnt-C59 + Phenformin; first compound 0.01 µM) of 0.345, a relative viability (Wnt-C59 + Phenformin; first compound 0.03162 µM) of 0.377 and a relative viability (Wnt-C59 + Phenformin; first compound 0.1 µM) of 0.332. For the same cell line, the relative viability (Lapatinib + Bortezomib; first compound 0.02 µM) was 0.994, the relative viability (Lapatinib + Bortezomib; first compound 0.06325 µM) was 0.93 and the relative viability (Lapatinib + Bortezomib; first compound 0.2 µM) was 0.819. It also gave a relative viability (Lapatinib + Bortezomib; first compound 0.6325 µM) of 0.859 and a relative viability (Lapatinib + Bortezomib; first compound 2 µM) of 0.963.
NCI-H1666 gave a relative viability (Wnt-C59 + Navitoclax; first compound 0.001 µM) of 1.14, a relative viability (Wnt-C59 + Navitoclax; first compound 0.01 µM) of 0.909 and a relative viability (Wnt-C59 + Navitoclax; first compound 0.03162 µM) of 1.01. The relative viability (Wnt-C59 + Navitoclax; first compound 0.1 µM) was 0.863, the relative viability (Wnt-C59 + Tozasertib; first compound 0.001 µM) was 0.649 and the relative viability (Wnt-C59 + Tozasertib; first compound 0.01 µM) was 0.674. It also gave a relative viability (Wnt-C59 + Tozasertib; first compound 0.03162 µM) of 0.566, a relative viability (Wnt-C59 + Tozasertib; first compound 0.1 µM) of 0.576 and a relative viability (Wnt-C59 + Phenformin; first compound 0.001 µM) of 0.54. For the same cell line, the relative viability (Wnt-C59 + Phenformin; first compound 0.01 µM) was 0.498, the relative viability (Wnt-C59 + Phenformin; first compound 0.03162 µM) was 0.531 and the relative viability (Wnt-C59 + Phenformin; first compound 0.1 µM) was 0.561. It also gave a relative viability (Lapatinib + Bortezomib; first compound 0.02 µM) of 0.761, a relative viability (Lapatinib + Bortezomib; first compound 0.06325 µM) of 0.619 and a relative viability (Lapatinib + Bortezomib; first compound 0.2 µM) of 0.848. The relative viability (Lapatinib + Bortezomib; first compound 0.6325 µM) was 0.877 and the relative viability (Lapatinib + Bortezomib; first compound 2 µM) was 0.378.
NCI-H1734 gave a relative viability (Wnt-C59 + Navitoclax; first compound 0.001 µM) of 0.856, a relative viability (Wnt-C59 + Navitoclax; first compound 0.01 µM) of 0.811 and a relative viability (Wnt-C59 + Navitoclax; first compound 0.03162 µM) of 0.86. The relative viability (Wnt-C59 + Navitoclax; first compound 0.1 µM) was 0.838, the relative viability (Wnt-C59 + Tozasertib; first compound 0.001 µM) was 0.258 and the relative viability (Wnt-C59 + Tozasertib; first compound 0.01 µM) was 0.233. It also gave a relative viability (Wnt-C59 + Tozasertib; first compound 0.03162 µM) of 0.288, a relative viability (Wnt-C59 + Tozasertib; first compound 0.1 µM) of 0.139 and a relative viability (Wnt-C59 + Phenformin; first compound 0.001 µM) of 0.389. For the same cell line, the relative viability (Wnt-C59 + Phenformin; first compound 0.01 µM) was 0.356, the relative viability (Wnt-C59 + Phenformin; first compound 0.03162 µM) was 0.478 and the relative viability (Wnt-C59 + Phenformin; first compound 0.1 µM) was 0.354. The relative viability (Lapatinib + Bortezomib; first compound 0.06325 µM) was 0.839, the relative viability (Lapatinib + Bortezomib; first compound 0.2 µM) was 1.02 and the relative viability (Lapatinib + Bortezomib; first compound 0.6325 µM) was 0.993. It also gave a relative viability (Lapatinib + Bortezomib; first compound 2 µM) of 0.862.
In the case of NCI-H1755, the relative viability (Wnt-C59 + Navitoclax; first compound 0.001 µM) is reported as 0.983, the relative viability (Wnt-C59 + Navitoclax; first compound 0.01 µM) is reported as 0.977 and the relative viability (Wnt-C59 + Navitoclax; first compound 0.03162 µM) is reported as 1.01. For the same cell line, the relative viability (Wnt-C59 + Navitoclax; first compound 0.1 µM) was 1.02, the relative viability (Wnt-C59 + Tozasertib; first compound 0.001 µM) was 0.647 and the relative viability (Wnt-C59 + Tozasertib; first compound 0.01 µM) was 0.528. It also gave a relative viability (Wnt-C59 + Tozasertib; first compound 0.03162 µM) of 0.646, a relative viability (Wnt-C59 + Tozasertib; first compound 0.1 µM) of 0.534 and a relative viability (Wnt-C59 + Phenformin; first compound 0.001 µM) of 0.486. It also gave a relative viability (Wnt-C59 + Phenformin; first compound 0.01 µM) of 0.631, a relative viability (Wnt-C59 + Phenformin; first compound 0.03162 µM) of 0.609 and a relative viability (Wnt-C59 + Phenformin; first compound 0.1 µM) of 0.632. It also gave a relative viability (Lapatinib + Bortezomib; first compound 0.02 µM) of 0.807, a relative viability (Lapatinib + Bortezomib; first compound 0.06325 µM) of 0.919 and a relative viability (Lapatinib + Bortezomib; first compound 0.2 µM) of 0.997. It also gave a relative viability (Lapatinib + Bortezomib; first compound 0.6325 µM) of 0.984 and a relative viability (Lapatinib + Bortezomib; first compound 2 µM) of 0.874.
